Measurements published in US20200399238A1, “THERAPEUTIC AURONES” (MIDDLE TENNESSEE STATE UNIVERSITY, priority 2016, published 2020).
pIC50: −log10 of the molar value. Like-named read-outs stand apart in the source and are kept apart here.

Tests used:
[1] = test system: C. albicans (ATCC strain 90028); assay: Antifungal microdilution broth assay (PrestoBlue), C. albicans; type: cell-based, Candida albicans; details: 100 μM; for inhibition at 100 µM: Candida albicans, ATCC90028, Table 4A, read-out: C. albicans inhibition (at 100 μM)
Experimental: Sigma-Aldrich) was used as the base medium for testing. […] solution of morpholinepropanesulfonic acid (MOPS; Sigma-Aldrich) was added to the RPMI to a final concentration of 0.165 M for buffering (RPMI-MOPS). This medium was adjusted to a pH of 7.0 with 10 M NaOH and filter sterilized. C. albicans (ATCC strain 90028), C. [NT] strain 66032), and C. tropicalis (ATCC strain 750) were cultured on potato dextrose agar (Sigma-Aldrich) plates, and incubated at 35° C. for 24 hours. For antifungal testing, overnight colonies were adjusted to 1.5×10^3 cells/mL, hereafter referred to as the test inoculum. PrestoBlue® (Life Technologies, Invitrogen, Carlsbad, Calif.), a resazurin-based cell viability reagent that, in metabolically active cells, is reduced from blue, non-fluorescent resazurin, to red, fluorescent resorufin, was used to assess inhibition of yeast growth by the aurones. […] Following addition of aurone, plates were then incubated for 24 hours at 35° C. PrestoBlue was added to a final concentration of 10% in each well and fluorescence read at 560 nm excitation and 590 nm emission, per manufacturer instructions, using a SpectraMax M2e spectrophotometer (Molecular Devices, LLC, Sunnyvale, Calif.). To optimize the PrestoBlue reduction time, RFUs were collected at 15 minute intervals for 4 hours using a reference antifungal. […] IC50 determination was calculated using GraphPad Prism version 7.01 for Windows (GraphPad Software, Inc., La Jolla, Calif.) from the RFUs at dilution points. Calculations were made with a nonlinear regression after transforming the molar concentrations of the aurones into the logarithmic form. Graphing was accomplished utilizing the same program following a four parameter curve fitting sigmoidal plot of the data. All aurones and controls were tested in triplicate and all testing was repeated in at least three independent experiments.

[2] = test system: rat skeletal muscle cell line, L6; assay: cells; type: cell-based
Experimental: Cells were maintained in high glucose DMEM obtained from HyClone Laboratories (Logan, Utah) and supplemented with FCS and P/S at the same concentrations used for parasite culture. Cells were passaged every 3-4 days and maintained in a 37° C. humidified incubator in an atmosphere of 5% CO2. For assays. cells were detached, counted using a hemocytometer, and adjusted using fresh media to deliver 5×10^3 cells per well (90 μL) in black walled, flat clear bottom 96-well microtiter plates. After 3 h incubation for attachment, compounds diluted in culture medium were added (10 μL) to triplicate wells. Positive controls (cells treated with podophyllotoxin (Sigma, St. Louis, Mo.)), negative controls (untreated cells), solvent controls (DMSO) and media blanks were included on each plate. Following incubation for 71.5 h, 11 μL of PrestoBlue was added into each well.

[3] = test system: Trypanosoma brucei brucei 427 cells; assay: T. brucei culture and assay (PrestoBlue); type: cell-based
[4] = test system: Trypanosoma cruzi Tulahuen cells expressing beta-galactosidase; assay: T. cruzi intracellular assay (beta-galactosidase, L6 host cells); details: for pIC50: Trypanosoma cruzi, TULAHUEN; for Selectivity L6/TC-I: Table 3A
Experimental: Trypanosoma cruzi Tulahuen cells expressing beta-galactosidase (Buckner et al., Antimicrob. Agents Chemother. 40 (1996) 2592-2597) were cultured using the L6 cell line as a host cell. Adherent L6 cultures were infected with freshly burst T. cruzi trypomastigotes. Approximately 4-6 days later freshly burst trypomastigotes were collected and used to maintain cultures For assays, trypomastigotes were centrifuged to a loose pellet and incubated for 3 hours to allow the trypomastigote forms to swim out of the pellet. Cells were adjusted for addition to intracellular or extracellular assays. […] For intracellular assays, cells were added to adherent L6 cells using an infection ratio of 1:1 and immediately treated with compounds. At 96 hours incubations, a solution containing chlorophenol-red-B-D-beta-galactopyranosidase (Sigma) and a lysis agent were added. After an additional 2 hour incubation, a spectrophotometer was used to quantify the resulting color change (or lack thereof) which was used to calculate inhibition.
The percentage of cell inhibition was calculated using the formula: Percent Inhibition=1−((Treated Sample value−Medium only value)/(Untreated value−Medium only value))×100. Results are expressed as the mean of two or more independent trials.

[5] = test system: Leishmania amazonensis promastigotes expressing beta-lactamase; assay: microbe, parasite or virus in culture; type: cell-based
Experimental: Leishmania amazonensis promastigotes expressing beta-lactamase (Buckner et al., Am. J. Trop. Med. Hyg. 72 (2005) 600-605. doi:72/5/600 [pii]) were cultured in RPMI supplemented with 10% fetal calf serum and 1% pen-strep-glut solution (Sigma) at 27° C. Stationary phase promastigotes were adjusted in fresh media, treated with compounds, and incubated at 37° C. At 24 hours, 100 uL of cultures was added to 50 uL of the CellTiter Glo® solution. Luminescence readings were taken with a spectrophotometer and used to calculate inhibition.

[6] = Rattus norvegicus, Table 1, read-out: IC50 Toxicity (L6)
[7] = Rattus norvegicus, Table 3B, weighted means of two or more independent trials, read-out: IC50 L6
[8] = Table 2, L6 mammalian cells, read-out: IC50 Toxicity (L6)
[9] = Table 2, L6 IC50 / T. brucei IC50
[10] = Trypanosoma brucei, Table 1, mean of 2(+) independent trials, read-out: IC50 T. brucei
[11] = Table 1, intracellular T. cruzi IC50
[12] = Table 2, L6 IC50 / T. cruzi IC50 (intracellular assay)
[13] = read-out: IC50 T. cruzi, Table 1, intracellular assay, mean of 2(+) trials (^c one trial)
[14] = read-out: IC50 T. cruzi, Table 2, intracellular assay, mean of 2(+) independent trials
[15] = read-out: IC50 TC-I, Table 3B, weighted means of two or more independent trials
[16] = Leishmania amazonensis, read-out: IC50 L. amaz.
[17] = Leishmania amazonensis, read-out: IC50 L. amaz. (footnote c: value obtained from one trial)
[18] = Rattus norvegicus, Table 3A, weighted means of two or more independent trials, read-out: IC50 L6
[19] = estimated from highest L6 dose tested where no L6 IC50
[20] = read-out: IC50 TC-I, Table 3A, weighted means of two or more independent trials
[21] = Table 2, L6 IC50 / L. amazonensis IC50
[22] = Table 2, mean of 2(+) independent trials, read-out: IC50 T. brucei

Row | SMILES | inhibition at 100 µM [1] [%] | pIC50 [2, 6] | pIC50 [3, 10] | pIC50 [4, 13] | pIC50 [5, 16] | other results
1 | COc1ccc2c(c1)O/C(=C\c1ccc[nH]1)C2=O [Aurone 5003] | 12.4 | – | – | – | – | –
2 | COc1ccc2c(c1)O/C(=C\c1ccc[nH]1)C2=O [Aurone 5004] | – | – | – | – | – | C. albicans inhibition (at 100 μM) ([1]; Table 4A): 14.7%
3 | O=C1/C(=C/c2cnc[nH]2)Oc2ccccc21 [Aurone 6621, (Z)-2-((1H-imidazol-5-yl)methylene)benzofuran-3(2H)-one] | – | < 4.00 | 5.81 | 4.74 | < 4.30 | pIC50 [2, 7]: < 4.00; pIC50 [2, 8]: < 4.00; Selectivity L6/Tb ([3]; Table 1): >64.10; Selectivity L6/Tb [3, 9]: >64.10; pIC50 ([3]; Trypanosoma brucei, read-out: IC50 TB): < 4.30; Selectivity L6/Tc [4, 11]: >5.45; Selectivity L6/Tc [4, 12]: >5.45; Selectivity L6/Tc-I ([4]; Table 3B, estimated from highest L6 dose tested where no L6 IC50): >5.45; pIC50 [4, 14]: 4.74; pIC50 [4, 15]: 4.74; pIC50 ([5]; read-out: IC50 L. amaz., Table 2, mean of 2(+) independent trials): < 4.30
4 | COc1cc(OC)c2c(c1)O/C(=C\c1cccc([N+](=O)[O-])c1)C2=O [Aurone 7001] | – | < 4.00 | < 4.30 | < 4.30 | 4.66 | –
5 | CC(C)c1ccc(/C=C2\Oc3ccccc3C2=O)cc1 [Aurone 8002, (Z)-2-(4-isopropylbenzylidene)benzofuran-3(2H)-one] | – | 4.05 | 4.36 | 4.78 | 5.54 | pIC50 [4, 14]: 4.78; pIC50 [5, 17]: 5.54
6 | O=C1/C(=C/c2ccc(F)cc2)Oc2ccccc21 [Aurone 9002, (Z)-2-(4-fluorobenzylidene)benzofuran-3(2H)-one] | – | < 4.00 | < 4.30 | 4.80 | 4.41 | pIC50 [2, 18]: < 4.00; Selectivity L6/Tc [4, 11]: >6.33; Selectivity L6/TC-I [4, 19]: >6.33; pIC50 [4, 20]: 4.80; Selectivity L6/La ([5]; Table 1): >2.54
7 | O=C1/C(=C/c2ccc(Cl)cc2)Oc2ccccc21 [Aurone 9019, (Z)-2-(4-chlorobenzylidene)benzofuran-3(2H)-one] | – | < 4.00 | 4.46 | 5.26 | 4.38 | pIC50 [2, 18]: < 4.00; pIC50 [2, 8]: < 4.00; Selectivity L6/Tb ([3]; Table 1): >2.88; Selectivity L6/Tb [3, 9]: >2.88; Selectivity L6/Tb ([3]; Table 3A, estimated from highest L6 dose tested where no L6 IC50): >2.88; Selectivity L6/Tc [4, 11]: >18.08; Selectivity L6/Tc [4, 12]: >18.08; Selectivity L6/TC-I [4, 19]: >18.08; pIC50 [4, 14]: 5.26; pIC50 [4, 20]: 5.26; Selectivity L6/La ([5]; Table 1): >2.41; Selectivity L6/La [5, 21]: >2.41
8 | O=C1/C(=C/c2cccc(Br)c2)Oc2ccccc21 [Aurone 9030, (Z)-2-(3-bromobenzylidene)benzofuran-3(2H)-one] | – | < 4.00 | < 4.30 | 5.13 | > 6.00 | pIC50 [2, 18]: < 4.00; pIC50 [2, 8]: < 4.00; pIC50 [3, 22]: < 4.30; Selectivity L6/Tc [4, 11]: >13.61; Selectivity L6/Tc [4, 12]: >13.61; Selectivity L6/TC-I [4, 19]: >13.61; pIC50 [4, 14]: 5.13; pIC50 [4, 20]: 5.13; pIC50 [5, 17]: > 6.00; Selectivity L6/La ([5]; Table 1): >100; Selectivity L6/La [5, 21]: >100
9 | O=C1/C(=C/c2c[nH]c3ccccc23)Oc2ccccc21 [Aurone 9062, (Z)-2-((1H-indol-3-yl)methylene)benzofuran-3(2H)-one] | – | 4.19 | 4.60 | 5.07 | 5.78 | pIC50 [2, 7]: 4.19; pIC50 [4, 14]: 5.07; pIC50 [4, 15]: 5.07; pIC50 ([4]; read-out: T. cruzi IC50 dose): > 5.00
10 | Cc1ccc(/C=C2\Oc3ccccc3C2=O)cc1 [Aurone 9065, (Z)-2-(4-methylbenzylidene)benzofuran-3(2H)-one] | – | < 4.00 | < 4.30 | 5.06 | 5.86 | pIC50 [2, 18]: < 4.00; pIC50 [2, 8]: < 4.00; pIC50 [3, 22]: < 4.30; Selectivity L6/Tc [4, 11]: >11.59; Selectivity L6/Tc [4, 12]: >11.59; Selectivity L6/TC-I [4, 19]: >11.59; pIC50 [4, 14]: 5.06; pIC50 [4, 20]: 5.06; Selectivity L6/La ([5]; Table 1): >72.99; Selectivity L6/La [5, 21]: >72.99
11 | CN(C)c1ccc(/C=C2\Oc3ccccc3C2=O)cc1 [Aurone 9087, (Z)-2-(4-(dimethylamino)benzylidene)benzofuran-3(2H)-one] | – | 3.84 | 4.41 | 5.27 | 5.78 | selectivity for T. cruzi (L6/Tc) [4]: 26.83; pIC50 [4, 14]: 5.27; pIC50 ([4]; read-out: T. cruzi IC50 dose): 5.27
12 | Cc1ccc(/C=C2\Oc3ccccc3C2=O)o1 [Aurone 9251] | – | 4.07 | 4.45 | 5.45 | 5.63 | pIC50 [2, 7]: 4.07; pIC50 [4, 15]: 5.45
13 | O=C1/C(=C/c2cccc(O)c2)Oc2ccccc21 [Aurone 9252, (Z)-2-(3-hydroxybenzylidene)benzofuran-3(2H)-one] | – | < 4.00 | 4.46 | 4.78 | 5.82 | pIC50 [4, 14]: 4.78
14 | O=C1/C(=C/c2cccs2)Oc2c1ccc(O)c2O [Sample 1001] | 26 | – | – | – | – | –
15 | O=C1/C(=C/c2ccc(Br)cc2)Oc2c1ccc(O)c2O [Sample 1005] | 43.9 | – | – | – | – | –
16 | COc1ccc(/C=C2\Oc3c(ccc(O)c3O)C2=O)cc1O [Sample 1009] | 99.4 | – | – | – | – | –

Row | SMILES | inhibition at 100 µM [1] [%] | pIC50 [2, 6] | pIC50 [3, 10] | pIC50 [4, 13] | pIC50 [5, 16] | other results
17 | O=C1/C(=C/c2cccs2)Oc2ccccc21 [Sample 2004] | 65.9 | – | – | – | – | –
18 | O=C1/C(=C/c2ccc[nH]2)Oc2ccccc21 [Sample 2021] | 78.8 | – | – | – | – | –
19 | O=C1/C(=C/c2ccco2)Oc2ccccc21 [Sample 2023] | 88.5 | – | – | – | – | –
20 | O=C1/C(=C/c2ncc[nH]2)Oc2ccccc21 [Sample 2026] | 43.8 | – | – | – | – | –
21 | O=C1/C(=C/c2cccs2)Oc2cc(O)ccc21 [Sample 2901] | 46.1 | – | – | – | – | –
22 | Cc1ccc(/C=C2\Oc3cc(O)ccc3C2=O)cc1 [Sample 2904] | 20 | – | – | – | – | –
23 | O=C1/C(=C/c2ccc(Br)cc2)Oc2cc(O)ccc21 [Sample 2905] | 16.6 | – | – | – | – | –
24 | O=C1/C(=C/c2ccc[nH]2)Oc2cc(O)ccc21 [Sample 2906] | 27.5 | – | – | – | – | –
25 | COc1ccc(/C=C2\Oc3cc(O)ccc3C2=O)cc1O [Sample 2911] | 40 | – | – | – | – | –
26 | COc1ccc(/C=C2\Oc3cc(O)ccc3C2=O)c(OC)c1OC [Sample 2912] | 54.8 | – | – | – | – | –
27 | COc1ccc2c(c1)O/C(=C\c1ccc(C)cc1)C2=O [Sample 5002] | 37.6 | – | – | – | – | –
28 | COc1ccc2c(c1)O/C(=C\c1ccc(Br)cc1)C2=O [Sample 5005] | 22.4 | – | – | – | – | –
29 | COc1ccc2c(c1)O/C(=C\c1ccc(C#N)cc1)C2=O [Sample 5006] | 19.4 | – | – | – | – | –
30 | Cc1ccc(/C=C2\Oc3ccc(Br)cc3C2=O)cc1 [Sample 6000] | 6.1 | – | – | – | – | –
31 | COc1cc(OC)c2c(c1)O/C(=C\c1ccc(C)cc1)C2=O [Sample 7000] | 45.6 | – | – | – | – | –
32 | COc1cc(OC)c2c(c1)O/C(=C\c1ccc([N+](=O)[O-])cc1)C2=O [Sample 7001] | 12.6 | – | – | – | – | –
